Here are results for seven compounds from PMC8350020, “Stepwise binding of inhibitors to human cytochrome P450 17A1 and rapid kinetics of inhibition of androgen biosynthesis” (The Journal of Biological Chemistry, 2021).

Molecules are shown by their SMILES. Like-named read-outs stand apart in the source and are kept apart here.

Series [1] concerns human P450 17A1. Particulars: read-out: IC50, progesterone 17α-hydroxylation, cited from earlier work.
The test system of series [2] is human P450 17A1. To be noted: cited from earlier work; for IC50: read-out: IC50, 17α-OH pregnenolone to DHEA (lyase).
Series [3] has as its target T1, human P450 17A1 (Homo sapiens, UniProt P05093).
T1 sequence (P05093 24-508 limits assumed): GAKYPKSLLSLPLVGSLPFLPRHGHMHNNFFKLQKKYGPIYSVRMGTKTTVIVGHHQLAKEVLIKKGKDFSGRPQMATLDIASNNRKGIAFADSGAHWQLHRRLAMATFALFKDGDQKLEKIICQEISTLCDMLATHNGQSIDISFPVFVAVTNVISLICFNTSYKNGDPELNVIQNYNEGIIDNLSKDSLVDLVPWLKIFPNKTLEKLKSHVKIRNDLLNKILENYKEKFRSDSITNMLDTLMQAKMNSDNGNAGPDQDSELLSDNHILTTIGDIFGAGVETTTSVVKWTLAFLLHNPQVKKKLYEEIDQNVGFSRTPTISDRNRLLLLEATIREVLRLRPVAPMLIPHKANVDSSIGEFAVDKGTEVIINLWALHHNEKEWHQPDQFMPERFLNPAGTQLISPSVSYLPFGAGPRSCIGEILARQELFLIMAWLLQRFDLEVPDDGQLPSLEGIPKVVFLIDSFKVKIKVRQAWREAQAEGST

Series [4] deals with T1, human P450 17A1. In words: Rates of onset of inhibition, pre-steady-state rapid chemical quench. In kind it is biochemical.
Description: In the control experiment, ES is not inhibited (no I present). […] Both progesterone 17α-hydroxylation (Fig. 10) and 17α-OH pregnenolone lyase activity (Fig. 11) were measured without and with all five inhibitors.
Reactions were performed using a KinTek RQF-3 rapid quench apparatus (KinTek) with the reaction loop set at position 7 and the temperature at 37 °C. The RQF-3 is a rapid mixing device that initiates a reaction by forcing equal volumes of two mixing syringes into a reaction loop. After pausing for the indicated incubation time, the reaction is then quenched and expelled from the apparatus. The reaction mixture (containing enzyme and substrate [in CH3OH, 1% (v/v)]) was initiated with an equal volume (19 μl) of NADPH solution (2 mM), effectively halving the initial concentration of all reaction components. When appropriate, inhibitor (in CH3OH) was added to the NADPH solution (in CH3OH), taking care to keep the total CH3OH composition of the final reaction to 1% (v/v). The substrates progesterone (5 μM) and 17α-OH pregnenolone (1.5 μM) were allowed to react for different lengths of time (0.1–5 and 2–60 s, respectively) prior to quenching with 160 μl of 1 M HCl. Five replicates of each time point were collected into vials to increase the detection sensitivity of the respective product at the shorter time points.
Series [5] deals with T1, human P450 17A1. In words: IC50 determination, 17α-OH pregnenolone lyase activity (DHEA formation), reconstituted P450 17A1/POR/b5. To be noted: for Ki: IC50 = Ki [1 + (S/Km)] for competitive inhibition, Km from Ref. 37, read-out: Predicted Ki, 17α-OH pregnenolone lyase; for Ratio (17-hydroxylation/lyase) of IC50: This work. The format is biochemical. As for the experimental part:
In the case of catalytic assays, the products of each reaction were redissolved in a solution of CF3CO2H (7 mM, prepared as a 0.1% v/v solution in C2H5OH) and dansyl hydrazine (10 mM, prepared in CH3OH) in amber glass vials (sealed and capped) and were allowed to react overnight (16 h) in the dark at room temperature (23 °C). The reaction was quenched with acetone (50 mM) followed by incubation at room temperature for 30 min. NaOH was added to 100 mM, and the products of the reactions were extracted into CH2Cl2 (1.0 ml), of which 0.8 ml of the organic (lower) layers was transferred to fresh amber vials and dried under a stream of nitrogen. The residues were redissolved in a mixture of a 0.1% HCO2H solution (aqueous) and CH3CN (0.1 ml; 1:1 dilution, v/v) and transferred to ultra performance LC (UPLC) vials for analysis. […] Data were processed using MassLynx software (Waters) (Fig. S5).
(§1) A 0.5 ml reaction was prepared in most cases by the reconstitution of P450 17A1 (0.02 μM), POR (0.5 μM), and b5 (0.5 μM) with freshly sonicated L-α-dilauroyl-sn-glycero-3-phosphocholine (30 μM). The mixture incubated on ice for 10 min, followed by the addition of potassium phosphate buffer (to a final concentration of 50 mM), substrate (5 μM progesterone or 1.5 μM 17α-OH pregnenolone ([37])), and water. Stock progesterone was prepared in CH3OH and was diluted to a final concentration of 5 μM (0.5% CH3OH, v/v). […] Reactions (in duplicate) were preincubated for 5 min at 37 °C with shaking before being initiated with an NADPH-generating system composed of 0.5 mM NADP^+, two units of yeast glucose 6-phosphate dehydrogenase ml^−1, and 10 mM glucose 6-phosphate ([56]). The inhibitor abiraterone was added immediately prior to the 5-min preincubation stage because of the rapid onset of inhibition. Reactions (5 min) were quenched by immersion in an ice bath, with the addition of CH2Cl2 (2.0 ml), and were centrifuged (10^3g, 10 min) to separate layers. The organic (bottom) phases were removed (1.6 ml) and transferred into clean vials, and the solvent was removed under a stream of nitrogen. Reactions were resuspended in a CH3CN/sodium acetate mixture (25 mM, pH 3.7) (1:1, v/v) and were transferred to vials for UPLC analysis. […] Substrate and product were detected using a Waters Acuity photodiode array system at 240 nm. Data were processed using the MassLynx software, and percent conversion of substrate to product was calculated. The data were normalized to the uninhibited reaction, which was set at 100% activity.
Experimental conditions for the lyase reaction were identical to the hydroxylation reaction with the following exceptions: 17α-OH pregnenolone (1.5 μM) was used as the substrate, and following extraction, the product of the reaction was derivatized with dansyl hydrazine as described previously.

In series [6] the test system is P450 17A1. To be noted: cited from earlier work.
Series [7] has as its target T1, human P450 17A1. In words: KinTek Explorer modeling of kinetics of inhibition of progesterone 17α-hydroxylation. In kind it is biochemical. Particulars: fit of Figure 10E data; E 2 μM, S 5 μM progesterone, I 1 μM; read-out: Kd as a competitive inhibitor (value giving adequate model fits).
Description: The results of the progesterone 17α-hydroxylation abiraterone inhibition experiment in Figure 10E were analyzed further using KinTek Explorer software (KinTek; Fig. 13).
The lines were fit to the model shown, with the indicated rate and dissociation constants. The enzyme concentration (E) was 2 μM, substrate concentration (S) was 5 μM, and inhibitor concentration (I, abiraterone) was 1 μM. Fitting was done with KinTek Explorer.
Series [8] addresses T2, human P450 17A1 (Homo sapiens, UniProt P05093).
T2 sequence (P05093 1-508): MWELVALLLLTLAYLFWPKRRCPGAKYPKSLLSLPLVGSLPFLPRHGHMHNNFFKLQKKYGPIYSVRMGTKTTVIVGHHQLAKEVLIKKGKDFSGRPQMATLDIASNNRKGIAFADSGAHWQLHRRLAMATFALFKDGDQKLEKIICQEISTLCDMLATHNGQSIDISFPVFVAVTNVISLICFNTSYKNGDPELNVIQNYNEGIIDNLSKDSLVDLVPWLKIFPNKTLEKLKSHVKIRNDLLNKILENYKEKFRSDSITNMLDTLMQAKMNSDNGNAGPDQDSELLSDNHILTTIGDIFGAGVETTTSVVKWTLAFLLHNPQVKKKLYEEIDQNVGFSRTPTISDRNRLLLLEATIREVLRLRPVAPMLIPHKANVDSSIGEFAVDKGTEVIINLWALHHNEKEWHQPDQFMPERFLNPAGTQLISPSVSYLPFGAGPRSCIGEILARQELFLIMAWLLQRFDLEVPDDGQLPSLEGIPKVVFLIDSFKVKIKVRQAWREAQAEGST
In words: Inhibition as a function of preincubation time with abiraterone, CYP17A1R Bactosomes. In kind it is biochemical. Particulars: 50 nM abiraterone, 10 nM P450 17A1 Bactosomes.
Description: These experiments utilized bacterial membranes (CYP17A1R Bactosomes) as the source of P450 and POR. Experiments were done with 10 nM P450 17A1 in reaction volumes of 0.5 ml, with 100 nM b5 added. Abiraterone was added to 50 nM, and then, the reactions were initiated by the addition of an NADPH-generating system supplemented with either 20 μM progesterone (A) or 17α-OH pregnenolone (B) at the indicated times and proceeded for 5 min (at 37 and 23 °C, respectively).
Steady-state kinetic inhibition assays performed with Cypex CYP17A1R Bactosomes followed largely the same procedure with the following exception: the enzymatic system was prepared by preincubating (23 °C) P450 17A1 (CYP17A1R Bactosomes; 10 nM P450), b5 (100 nM), and potassium phosphate buffer (50 mM, pH 7.4) with abiraterone (50 nM) for varying lengths of time (0.25–30 min). Reactions (5 min) were then initiated with the NADPH-generating system described previously and subjected to the same procedure.

Series [9] concerns the target T1, human P450 17A1. In words: IC50 determination, progesterone 17α-hydroxylation (17α-OH progesterone formation), reconstituted P450 17A1/POR/b5. In kind it is biochemical. To be noted: for IC50: IC50 (95% CI limits), progesterone 17α-hydroxylation, steady-state, 0.02 μM P450 17A1, 5 μM progesterone, 37 °C; for Ki: IC50 = Ki [1 + (S/Km)] for competitive inhibition, Km from Ref. 37, read-out: Predicted Ki, progesterone 17α-hydroxylation. As for the experimental part: as §1

The target in series [10] is T1, human P450 17A1. To be noted: 250 nM P450 17A1 and 250 nM inhibitor, 23 °C.
The mark [11] stands for this setting: IC50 (95% CI limits), 17α-OH pregnenolone lyase, steady-state, 0.02 μM P450 17A1, 1.5 μM 17α-OH pregnenolone, 37 °C.
Where [12] appears, read: range of other studies, ref Other studies (2) Petrunak et al. 2017.

As to `CC(C)[C@@](O)(c1ccc2cc(OC(F)F)c(OC(F)F)cc2c1)c1cn[nH]n1` [(R)-Seviteronel], the half-inhibitory concentration (IC50) (as a rule, the concentration at which inhibition is half-maximal) in series [1] (ref (2) Petrunak et al. 2017) is 11300 nM; in series [2] (ref (2) Petrunak et al. 2017) it was 5000 nM. In addition, the “Ratio (17-hydroxylation/lyase) of IC50” value in series [2] (ref (2) Petrunak et al. 2017) was 2.3.

Take `C[C@]12CC[C@H](O)CC1=CC[C@@H]1[C@@H]2CC[C@]2(C)C(c3cccnc3)=CC[C@@H]12` [Abiraterone, 17-(3-pyridyl)androsta-5,16-dien-3β-ol]: the “Further spectral changes after formation of final complex” value in series [3] (2 μM P450 17A1 and 2 μM abiraterone, spectra 1 to 57 min after mixing) is listed as “no further spectral changes were observed over a period of 1 h”. The “Time within which inhibition occurred” value in series [4] (Figs. 10, 11 and 13) is “less than 1 s”. In addition, the “Earliest time points at which inhibition was noted” value in series [4] (progesterone 17α-hydroxylation, 1 μM abiraterone, 2 μM P450) is at most 100 ms. The IC50 in series [5] (setting [11]) was 4.2 nM; in series [1] (ref (2) Petrunak et al. 2017), 76 nM; in [9], 3.2 nM; in series [2] (setting [12]), 2.9 to 800 nM; in series [2] (ref (2) Petrunak et al. 2017), 36 nM. The inhibition constant Ki (usually a measure of affinity in units of concentration, obtained from inhibition or displacement) in [5] is 3.4 nM; in series [9], 1.3 nM. For the same compound, the “Ratio (17-hydroxylation/lyase) of IC50” value is listed as 0.76 in [5], 0.1-1.4 in [2] (setting [12]) and 2.1 in series [2] (ref (2) Petrunak et al. 2017). In addition, the dissociation rate constant (koff) (in general, the first-order rate constant of dissociation) in [6] is 0.000155 s⁻¹. The “t1/2 (from koff)” value in [6] is 5 h. The equilibrium dissociation constant (Kd) (as a rule, the equilibrium constant for the complex coming apart) in series [7] amounted to 1 nM. Moreover, in series [8] (100 nM b5, 20 μM 17α-OH pregnenolone, 23 °C), the “Inhibition of 17α-OH pregnenolone lyase versus preincubation time” value is listed as “almost completely inhibited after 15 s”. Besides, the “Inhibition of progesterone 17α-hydroxylation versus preincubation time” value in series [8] (100 nM b5, 20 μM progesterone, 37 °C) is “almost completely inhibited after 15 s”.

As to `Clc1ccccc1C(c1ccccc1)(c1ccccc1)n1ccnc1` [Clotrimazole], in [3] (2 μM P450 17A1 mixed with inhibitor, 23 °C), the “Time required for completion of spectral changes on binding” value is listed as around 30 s. For the same compound, in series [10] (20 μM 17α-OH pregnenolone), the “Lag in recovery of 17α-OH pregnenolone lyase from 1:1 inhibitor complex” value is reported as “Any suggestion of lags is no greater than in the uninhibited reactions”. In addition, in series [10] (20 μM progesterone), the “Lag in recovery of progesterone 17α-hydroxylation from 1:1 inhibitor complex” value is on record as “Any suggestion of lags is no greater than in the uninhibited reactions”. Moreover, the IC50 was 99 nM in series [5] (setting [11]), 180 nM in [1] (ref (5) Munkboel et al. 2019), 60 nM in series [9] and 56 nM in [2] (ref (5) Munkboel et al. 2019). The Ki in series [5] is 81 nM; in series [9], 23 nM. Besides, the “Ratio (17-hydroxylation/lyase) of IC50” value in [5] was 0.61; in series [2] (ref (5) Munkboel et al. 2019), 3.3.

For the compound `C[C@]12CC[C@H](O)CC1=CC[C@@H]1[C@@H]2CC[C@]2(C)C(n3cnc4ccccc43)=CC[C@@H]12` [Galaterone], the half-maximal inhibitory concentration (IC50) in [1] (ref (2) Petrunak et al. 2017) is 130 nM. Further, in series [2] (ref (2) Petrunak et al. 2017), the “Ratio (17-hydroxylation/lyase) of IC50” value is 1.3 and the half-inhibitory concentration (IC50) was 100 nM.

On to `CC(C)[C@](O)(c1ccc2cc(OC(F)F)c(OC(F)F)cc2c1)c1c[nH]nn1` [Seviteronel, (S)-Seviteronel], for which the IC50 in series [5] (setting [11]) is 3430 nM; in series [5] (This work (Fig. 3, Table 1), read-out: IC50, 17α-OH pregnenolone to DHEA (lyase)), 3400 nM; in series [1] (ref (2) Petrunak et al. 2017), 1170 nM; in series [1] (ref (4) Rafferty et al. 2014), 690 nM; in [9], 3500 nM; in series [2] (ref (2) Petrunak et al. 2017), 430 nM. Further, the concentration for half-maximal inhibition (IC50) in [2] (ref (4) Rafferty et al. 2014) was 69 nM. The inhibitory constant (Ki) in series [5] is 2810 nM; in series [9], 1370 nM. Moreover, the “Ratio (17-hydroxylation/lyase) of IC50” value in series [5] was 1.0; in series [2] (ref (2) Petrunak et al. 2017) it was 2.7; in series [2] (ref (4) Rafferty et al. 2014), 10.

Turning to `CC(C)(C)NC(=O)[C@@H]1CN(Cc2cccnc2)CCN1C[C@@H](O)C[C@@H](Cc1ccccc1)C(=O)N[C@H]1c2ccccc2C[C@H]1O` [indinavir], the “Spectral interaction with P450 17A1” value in series [3] is “did not show strong enough spectral interaction”.

In the case of `CCC(C)n1ncn(-c2ccc(N3CCN(c4ccc(OCC5COC(Cn6cncn6)(c6ccc(Cl)cc6Cl)O5)cc4)CC3)cc2)c1=O` (stereo not shown) [itraconazole], the “Spectral interaction with P450 17A1” value in series [3] is listed as “did not show strong enough spectral interaction”.
